One data set has as its system murine P388 cell line. The experiment in a line: In vitro cell-based cytotoxicity / proliferation inhibition (XTT assay). As to conditions: Mus musculus, 72 hrs incubation, absorbance at 450 nm. How it is done:
The proliferation inhibition activity against murine P388 cell line was measured as follow. […] The cells were incubated at 37° C. for 72 hrs at which time the tetrazolium dye, XTT, containing phenazine methosulfate was added. A dehydrogenase enzyme in live cells reduoes the XTT to a form that absorbs light at 450 nm which can be quantitated spectrophotometrically. The greater the absorbance the greater the number of live cells. The results are expressed as an IC50 which is the drug concentration required to inhibit cell proliferation (i.e. absorbance at 450 nm) to 50% of that of untreated control cells.
(In general: Tetrazolium dyes change colour on reduction, which living cells bring about.)

A further data set addresses T1, human topoisomerase I (Homo sapiens, UniProt P11387).
T1 construct: purchased Topogen
T1 sequence (P11387 1-765): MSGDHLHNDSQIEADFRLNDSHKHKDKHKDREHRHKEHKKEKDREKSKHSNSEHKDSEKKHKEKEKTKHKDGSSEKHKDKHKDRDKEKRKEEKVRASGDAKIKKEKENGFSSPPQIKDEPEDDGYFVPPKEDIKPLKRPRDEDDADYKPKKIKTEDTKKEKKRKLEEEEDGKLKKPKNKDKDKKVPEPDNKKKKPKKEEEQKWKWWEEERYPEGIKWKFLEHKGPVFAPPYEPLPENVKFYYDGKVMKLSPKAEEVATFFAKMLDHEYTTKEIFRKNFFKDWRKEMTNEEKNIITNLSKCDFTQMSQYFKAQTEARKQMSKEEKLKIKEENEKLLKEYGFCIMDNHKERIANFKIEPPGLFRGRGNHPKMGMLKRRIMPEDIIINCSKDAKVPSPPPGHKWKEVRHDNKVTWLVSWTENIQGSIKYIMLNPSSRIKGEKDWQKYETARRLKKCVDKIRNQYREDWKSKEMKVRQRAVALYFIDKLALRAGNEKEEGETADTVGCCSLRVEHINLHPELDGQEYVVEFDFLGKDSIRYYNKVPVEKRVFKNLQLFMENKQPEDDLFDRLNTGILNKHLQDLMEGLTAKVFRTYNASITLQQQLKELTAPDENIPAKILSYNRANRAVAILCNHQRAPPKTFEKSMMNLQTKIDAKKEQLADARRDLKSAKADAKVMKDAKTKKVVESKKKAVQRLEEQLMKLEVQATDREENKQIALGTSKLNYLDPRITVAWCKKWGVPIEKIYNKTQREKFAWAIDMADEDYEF
Put plainly: Topoisomerase I activity (in vitro): compound-induced, topoisomerase I-mediated single strand breaks in PM2 DNA. As to conditions: purified human topoisomerase I (Topogen), 30 minutes at 37° C., median effective concentration for inducing single strand breaks, read-out: TOPO I EC50. Format: biochemical. On the procedure: Topoisomerase I activity was measured as described below: The procedure for assaying compound-induced, topoisomerase I-mediated single strand breaks in DNA was essentially that described by Hsiang, et al., (J. Biol. Chem. 1985, 260,14873-14878). Samples dissolved in 100% DMSO as either […] or 10 mg/ml solutions, unless otherwise stated, were diluted in Tris-EDTA buffer. Marine bacteriophage PM2 DNA (Boehringer Mannheim) was also diluted in Tris-EDTA buffer to a concentration of 0.02 μg/μl. Different dilutions of compound being evaluated were mixed with diluted DNA and this mixture was added to 1000 unit (one unit of enzyme activity is defined as the amount capable of relaxing 100 ng of supercoiled DNA in approximately 30 minutes at 37° C.) aliquots of purified human topoisomerase I (Topogen) in 2×reaction buffer to start the reaction. The compound—DNA—enzyme mixture was incubated for 30 minutes at 37° C. before stopping the reaction with warm stop buffer containing sodium dodecyl sulfate and proteinase K (Sigma). These mixtures were allowed to incubate at 37° C. for another 10 minutes, at which time the mixtures were removed from the waterbath and extracted with a 24:1 mixture of chloroform/isoamyl alcohol. Following centrifugation, aliquots of the aqueous phases were placed in wells of a 0.9% agarose (SeaKem) gel in Tris-borate buffer containing 0.5 μg/ml of ethidium bromide and subjected to electrophbresis for 15 hours to separate the different topological isomers and nicked and broken DNAs. After destaining the gel in water, the ethidium bromide stained DNA reaction products were visualized by exposing the gel to UV irradiation. Negatives of photographs of the irradiated gels were scanned with a densitometer and areas under the peaks were calculated in order to obtain percent-single strand DNA break formation for each sample. A median effective concentration(EC50) was obtained for each compound by interpolation between points of the resulting dose-effect curve which defines the potency of the compound for its effect in inducing topoisomerase I-mediated single strand breaks in DNA.

Experimental findings from patent US6686385B2, “Anhydro sugar derivatives of indolocarbazoles” (Bristol-Myers Squibb Company, priority 2000, dated 2004) are described below.

As a reminder, the IC50 is the concentration that inhibits the measured activity by half. By EC50 is commonly meant the concentration giving half of the maximal effect. Turning to `O=C1NC(=O)c2c1c1c3cc(F)ccc3[nH]c1c1c2c2cc(F)ccc2n1[C@@H]1OC2COC(C2O)C1O` (stereo partly drawn) [Example 1, 3,9-Difluoro-12,13-dihydro-13-[(3,6-anhydro)-β-D-glucopyranosyl]-5H-indolo[2,3-a]pyrrolo[3,4-c]carbazole-5,7(6H)-dione], the IC50 in the data set with murine P388 cell line was found to be 93 nM. Also, the half-maximal effective concentration (EC50) at human topoisomerase I is 85 nM.

Compound `O=C1NC(=O)c2c1c1c3cc(F)ccc3[nH]c1c1c2c2cc(F)ccc2n1[C@H]1OC2COC([C@@H]2O)[C@H]1O` (stereo partly drawn) [Example 2, 3,9-Difluoro-12,13-dihydro-13-[(3,6-anhydro)-α-D-glucopyranosyl]-5H-indolo[2,3-a]pyrrolo[3,4-c]carbazole-5,7(6H)-dione] gave an IC50 with murine P388 cell line of 38.8 nM. Also, at human topoisomerase I, the EC50 stood at 360 nM.

With `O=C1c2c(c3c4cc(F)ccc4n([C@@H]4OC5COC([C@@H]5O)[C@H]4O)c3c3[nH]c4ccc(F)cc4c23)C(=O)N1O` (stereo partly drawn) [Example 3, 3,9-Difluoro-12,13-dihydro-13-[(3,6-anhydro)-β-D-glucopyranosyl]-5H-indolo[2,3-a]pyrrolo[3,4-c]carbazole-5,7(6-N-hydroxyl)-dione], the IC50 in the data set with murine P388 cell line was 14.6 nM. The EC50 on human topoisomerase I was 14 nM.

In the case of `NN1C(=O)c2c(c3c4cc(F)ccc4n([C@@H]4OC5COC([C@@H]5O)[C@H]4O)c3c3[nH]c4ccc(F)cc4c23)C1=O` (stereo partly drawn) [Example 4, 3,9-Difluoro-12,13-dihydro-13-[(3,6-anhydro)-β-D-glucopyranosyl]-5H-indolo[2,3-a]pyrrolo[3,4-c]carbazole-5,7(6-N-amino)-dione], in the data set on murine P388 cell line, the IC50 is < 3 nM. For the same compound, the EC50 at human topoisomerase I was 10 nM.

Compound `O=C1c2c(c3c4cc(F)ccc4n(C4O[C@H]5[C@H](OC[C@H]5O)[C@H]4O)c3c3[nH]c4ccc(F)cc4c23)C(=O)N1O` (stereo partly drawn) [Example 6, 3,9-Difluoro-12,13-dihydro-13-[(2,6-dihydroxy)-(4,8-dioxa)-bicyclo[3.3.0]oct-3-yl]-5H-indolo[2,3-a]pyrrolo[3,4-c]carbazole-5,7(6-N-hydroxyl)-dione] yielded an IC50 in the data set with murine P388 cell line of 14.1 nM. Further, the EC50 at human topoisomerase I turned out to be 10 nM.

`O=C1NC(=O)c2c1c1c3cc(F)ccc3[nH]c1c1c2c2cc(F)ccc2n1C1O[C@H](CF)[C@@H](F)[C@H]2O[C@@H]12` (stereo partly drawn) [Example 7, 3,9-Difluoro-12,13-dihydro-13-[(2,3-anhydro)-(4,6-difluoro)-β-D-glucopyranosyl]-5H-indolo[2,3-a]pyrrolo[3,4-c]carbazole-5,7(6H)-dione] yielded an IC50 with murine P388 cell line of 493 nM. Also, the EC50 on human topoisomerase I was determined as 580 nM.

Consider `O=C1NC(=O)c2c1c1c3cc(F)ccc3[nH]c1c1c2c2cc(F)ccc2n1C1O[C@H](CO)[C@H]2O[C@H]2[C@H]1O` (stereo partly drawn) [Example 8, 3,9-Difluoro-12,13-dihydro-13-[(3,4-anhydro)-β-D-glucopyranosyl]-5H-indolo[2,3-a]pyrrolo[3,4-c]carbazole-5,7(6H)-dione], for which half-maximal inhibition in the data set on murine P388 cell line (IC50) required 5.3 nM. The EC50 at human topoisomerase I turned out to be 18 nM.

In turn, `O=C1NC(=O)c2c1c1c3cc(F)ccc3[nH]c1c1c2c2cc(F)ccc2n1[C@@H]1OC2COC(C2)C1O` (stereo partly drawn) [Example 11, 3,9-Difluoro-12,13-dihydro-13-[(3,6-anhydro-4-deoxy)-β-D-glucopyranosyl]-5H-indolo[2,3-a]pyrrolo[3,4-c]carbazole-5,7(6H)-dione] returned an IC50 in the data set with murine P388 cell line of 70 nM. On human topoisomerase I, the EC50 was determined as 130 nM.

Broadly, the melting point is the temperature, or range, at which the solid turns liquid. With `O=C1NC(=O)c2c1c1c3ccc(F)cc3[nH]c1c1c2c2ccc(F)cc2n1[C@@H]1O[C@H](CO)[C@H]2O[C@H]2[C@H]1O` [Example 12], the melting point is > 300 °C. Moreover, inhibition in the data set on murine P388 cell line was half-maximal at 107 nM (IC50). Further, the EC50 at human topoisomerase I was determined as 580 nM.

Consider `O=C1NC(=O)c2c1c1c3cc(F)ccc3sc1c1c2c2cc(F)ccc2n1[C@H]1O[C@@H]2CO[C@H]([C@H]1O)[C@@H]2O` [Example 13, 3,9-Difluoro-13-(3,6-anhydro-α-D-glucopyranosyl)-5H,13H-benzo[β]thienyl[2,3-a]pyrrolo[3,4-c]carbazole-5,7(6H)-dione], for which the melting point was > 305 °C. In the data set on murine P388 cell line, the concentration for half-maximal inhibition (IC50) is 23.2 nM. Further, the EC50 at human topoisomerase I is 110 nM.

`O=C1NC(=O)c2c1c1c3ccc(F)cc3[nH]c1c1c2c2ccc(F)cc2n1[C@@H]1O[C@@H]2CO[C@H]([C@H]1O)[C@@H]2O` [Example 14, 12-(3,6-Anhydro-β-D-glucopyranosyl)-2,10-difluoro-12,13-dihydro-5H-indolo[2,3-a]pyrrolo[3,4-c]carbazole-5,7(6H)-dione]: the melting point is > 300 °C. Besides, the IC50 in the data set on murine P388 cell line was determined as 6220 nM. The EC50 on human topoisomerase I was 5500 nM.

Turning to `O=C1NC(=O)c2c1c1c3cc(F)c(F)cc3[nH]c1c1c2c2cc(F)c(F)cc2n1[C@@H]1O[C@@H]2CO[C@@H](C2)[C@H]1O` [Example 16, 2,3,9,10-Tetrafluoro-12-(3,6-anhydro-4-deoxy-β-D-glucopyranosyl)-6,7,12,13-tetrahydro(5H)indolo[2,3-a]pyrrolo[3,4-c]carbazole-5,7-dione], the IC50 in the data set on murine P388 cell line worked out at 310 nM.

In the data set on murine P388 cell line, `O=C1NC(=O)c2c1c1c3cc(F)c(F)cc3[nH]c1c1c2c2cc(F)c(F)cc2n1[C@@H]1O[C@@H]2CO[C@H]([C@H]1O)C2(F)F` [Example 17, 2,3,9,10-Tetrafluoro-12-(3,6-anhydro-4-deoxy-4,4-difluoro-β-D-glucopyranosyl)-6,7,12,13-tetrahydro(5H)indolo[2,3-a]pyrrolo[3,4-c]carbazole-5,7-dione] returned a concentration for half-maximal inhibition (IC50) of 240 nM. The EC50 at human topoisomerase I amounted to 15000 nM.

In turn, `O=C1NC(=O)c2c1c1c3cc(F)ccc3[nH]c1c1c2c2cc(F)ccc2n1[C@@H]1O[C@@H]2CO[C@H]([C@H]1O)[C@H]2O` [Example 18, 3,9-Difluoro-12,13-dihydro-13-[(3,6-anhydro)-β-D-galactopyranosyl]-5H-indolo[2,3-a]pyrrolo[3,4-c]carbazole-5,7(6H)-dione] returned an IC50 in the data set on murine P388 cell line of 123 nM. Moreover, on human topoisomerase I, the EC50 was 180 nM.
